# Test results from patent US5508293A, “Pyridinecarboxyimidamide compounds and the use thereof” (Kirin Beer Kabushiki Kaisha, priority 1992, dated 1996).
# Tests used:
# [1] = system: spontaneously hypertensive rats (SHR), mean blood pressure; assay: Antihypertensive activities on spontaneously hypertensive rat (intravenously); assay type: in vivo, rat (male spontaneously hypertensive rats; settings: iv, anesthetized male SHR, i.v., cumulative dosing, read-out: ED20 (the dose which lowered the blood pressure by 20%)
# Protocol: Animals were anesthetized with urethane: α-chloralose.
# A cannula was inserted into the carotid artery for measuring the mean blood pressure via a pressure transducer. A test compound was cumulatively administered through the cannula inserted into the femoral vein with an interval of 30 minutes. Variation of blood pressure was determined as the percentage change in the blood pressure before administration of the test compound, and the ED20 (the dose which lowered the blood pressure by 20%) was calculated from a dose-response curve.
# beagles, blood pressure = assay: Antihypertensive activity on anesthetized beagles (intravenously); assay type: in vivo, dog (beagles)
# Protocol: Antihypertensive activities of 5-amino-N-cyano-N'-[2-(2-chlorophenyl)ethyl]-3-pyridinecarboximidamide (N-cyano-N'-[2-(2-chlorophenyl)ethyl]-5-(3aminopyridine)carboximidamide; Compound No. 6) according to the present invention was assessed by comparison with those of N-cyano-N'-[2-(2-chlorophenyl)ethyl]-3-pyridinecarboximidamide which is thought to be a wellknown compound most similar to the compound of the present invention (see Japanese Patent Laid-Open Publication No. 163061/1991).
# Experiments were carried out with beagles (body weight, 9.2-10.4 kg) under anesthetization by intravenous administering 30 mg/kg of pentobarbital sodium. A cannula was inserted into the right femoral artery for measuring blood pressure. […]
# [2] = system: renal hypertensive beagles, blood pressure; assay: Antihypertensive activities on renal hypertensive beagles (oral); assay type: in vivo, dog (2-kidney-1-clipped renal hypertensive beagles)
# Protocol: Beagles (body weight, 9.0-11.0 kg) were anesthetized with 30 mg/kg of pentobarbital sodium intravenously. The left renal artery was carefully exposed through a flank incision, and wound with two silk sutures and ligated together with a 18G needle (external diameter; 1.2 mm) at two positions with the distance of 5 mm. A polyethylene tube for the measurement of blood pressure (IMG, PE-100) was inserted into the femoral artery, and the other terminal of the tube was exteriorized at the back of the neck. The polyethylene tube was filled with physiological saline containing 500 U/ml of heparin and sealed with a steel wire plug except on the measurement of the blood pressure. Antibiotics (penicilline and streptomycin, manufactured by Meiji Seika) were administered intramuscularly for three days after operation to prevent infections.
# After 5-amino-N-cyano-N'-[2-(2-chlorophenyl)ethyl]-3-pyridinecarboximidamide was put into a No. 3 gelatin capsule, a gap was filled with lactose (100 mesh). The capsule was administered orally, and blood pressure was measured for 24 hours after administering the drug. Measurement was carried out without anesthetization under suspension with sling sheet. Blood pressure was measured by connecting the tube for measuring blood pressure to a pressure transducer (TP-400T; manufactured by Nihon Kohden) and recorded on a polygraph.
# [3] = Acute toxicity, oral, Compound No. 6; assay type: in vivo, rat (male SD rats, 5 weeks old); settings: rat, in vivo, male SD rats (5 weeks old)
# Protocol: (§1) Acute toxicity of 5-amino-N-cyano-N'-[2-(2-chlorophenyl)ethyl]-3-pyridinecarboximidamide (Compound No. 6) of the present invention on oral administration was examined with male SD rats (5 weeks old). As a result, no rats died at the dose of 50 mg/kg. LD50 was in the range over 50 mg/kg.
# male SD rats = assay: Acute toxicity, oral, Compound No. 6; assay type: in vivo, rat (male SD rats, 5 weeks old); settings: 50 mg/kg, male SD rats
# Protocol: as §1
structure (smiles),measurement,setting,value
"N#CNC(=NCCc1ccccc1Cl)c1cncc(N)c1 [Compound No. 6, 5-amino-N-cyano-N'-[2-(2-chlorophenyl)ethyl]-3-pyridinecarboximidamide]",ED20,[1],4.6 µg/kg
same,decrease in blood pressure,"beagles, blood pressure; i.v., 3-30 μg/kg",Dose-dependent decrease in blood pressure was observed
same,duration of the antihypertensive action,"beagles, blood pressure; i.v., dose 3 μg/kg",10 min
same,Antihypertensive activity (%),"beagles, blood pressure; i.v., dose 3 μg/kg, 0 min after dosage",0.0%
same,Antihypertensive activity (%),"beagles, blood pressure; i.v., dose 3 μg/kg, 1 min after dosage",-3.9%
same,Antihypertensive activity (%),"beagles, blood pressure; i.v., dose 3 μg/kg, 2 min after dosage",-12.8%
same,Antihypertensive activity (%),"beagles, blood pressure; i.v., dose 3 μg/kg, 3 min after dosage",-10.3%
same,Antihypertensive activity (%),"beagles, blood pressure; i.v., dose 3 μg/kg, 5 min after dosage",-6.4%
same,Antihypertensive activity (%),"beagles, blood pressure; i.v., dose 3 μg/kg, 7.5 min after dosage",-3.9%
same,Antihypertensive activity (%),"beagles, blood pressure; i.v., dose 3 μg/kg, 10 min after dosage",-3.9%
same,duration of the antihypertensive action,"beagles, blood pressure; i.v., dose 10 μg/kg",45 min
same,Antihypertensive activity (%),"beagles, blood pressure; i.v., dose 10 μg/kg, 0 min after dosage",0.0%
same,Antihypertensive activity (%),"beagles, blood pressure; i.v., dose 10 μg/kg, 1 min after dosage",-16.0%
same,Antihypertensive activity (%),"beagles, blood pressure; i.v., dose 10 μg/kg, 2 min after dosage",-22.7%
same,Antihypertensive activity (%),"beagles, blood pressure; i.v., dose 10 μg/kg, 3 min after dosage",-26.7%
same,Antihypertensive activity (%),"beagles, blood pressure; i.v., dose 10 μg/kg, 5 min after dosage",-26.7%
same,Antihypertensive activity (%),"beagles, blood pressure; i.v., dose 10 μg/kg, 7.5 min after dosage",-26.7%
same,Antihypertensive activity (%),"beagles, blood pressure; i.v., dose 10 μg/kg, 10 min after dosage",-26.7%
same,Antihypertensive activity (%),"beagles, blood pressure; i.v., dose 10 μg/kg, 15 min after dosage",-20.0%
same,Antihypertensive activity (%),"beagles, blood pressure; i.v., dose 10 μg/kg, 20 min after dosage",-16.0%
same,Antihypertensive activity (%),"beagles, blood pressure; i.v., dose 10 μg/kg, 30 min after dosage",-13.3%
same,Antihypertensive activity (%),"beagles, blood pressure; i.v., dose 10 μg/kg, 45 min after dosage",-6.7%
same,duration of the antihypertensive action,"beagles, blood pressure; i.v., dose 30 μg/kg",60 min
same,Antihypertensive activity (%),"beagles, blood pressure; i.v., dose 30 μg/kg, 0 min after dosage",0.0%
same,Antihypertensive activity (%),"beagles, blood pressure; i.v., dose 30 μg/kg, 1 min after dosage",-29.3%
same,Antihypertensive activity (%),"beagles, blood pressure; i.v., dose 30 μg/kg, 2 min after dosage",-40.0%
same,Antihypertensive activity (%),"beagles, blood pressure; i.v., dose 30 μg/kg, 3 min after dosage",-42.7%
same,Antihypertensive activity (%),"beagles, blood pressure; i.v., dose 30 μg/kg, 5 min after dosage",-46.7%
same,Antihypertensive activity (%),"beagles, blood pressure; i.v., dose 30 μg/kg, 7.5 min after dosage",-44.0%
same,Antihypertensive activity (%),"beagles, blood pressure; i.v., dose 30 μg/kg, 10 min after dosage",-42.7%
same,Antihypertensive activity (%),"beagles, blood pressure; i.v., dose 30 μg/kg, 15 min after dosage",-40.0%
same,Antihypertensive activity (%),"beagles, blood pressure; i.v., dose 30 μg/kg, 20 min after dosage",-36.0%
same,Antihypertensive activity (%),"beagles, blood pressure; i.v., dose 30 μg/kg, 30 min after dosage",-33.3%
same,Antihypertensive activity (%),"beagles, blood pressure; i.v., dose 30 μg/kg, 45 min after dosage",-24.0%
same,Antihypertensive activity (%),"beagles, blood pressure; i.v., dose 30 μg/kg, 60 min after dosage",-16.0%
same,antihypertensive activity determined with the passage of time,"beagles, blood pressure; summary statement",extremely potent and sustainable
same,Average blood pressure,"[2]; 0.25 mg/kg p.o., 0 hour after administration",122.4 ± 4.4 mmHg
same,Average blood pressure,"[2]; 0.25 mg/kg p.o., 1 hour after administration",100.9 ± 7.4 mmHg
same,Average blood pressure,"[2]; 0.25 mg/kg p.o., 2 hour after administration",85.7 ± 0.3 mmHg
same,Average blood pressure,"[2]; 0.25 mg/kg p.o., 4 hour after administration",102.8 ± 3.9 mmHg
same,Average blood pressure,"[2]; 0.25 mg/kg p.o., 6 hour after administration",110.1 ± 2.6 mmHg
same,Average blood pressure,"[2]; 0.25 mg/kg p.o., 8 hour after administration",112.6 ± 3.4 mmHg
same,Average blood pressure,"[2]; 0.25 mg/kg p.o., 24 hour after administration",118.8 ± 4.8 mmHg
same,Average blood pressure,"[2]; 0.50 mg/kg p.o., 0 hour after administration",126.6 ± 0.5 mmHg
same,Average blood pressure,"[2]; 0.50 mg/kg p.o., 1 hour after administration",68.1 ± 7.4 mmHg
same,Average blood pressure,"[2]; 0.50 mg/kg p.o., 2 hour after administration",84.8 ± 6.1 mmHg
same,Average blood pressure,"[2]; 0.50 mg/kg p.o., 4 hour after administration",99.7 ± 12.3 mmHg
same,Average blood pressure,"[2]; 0.50 mg/kg p.o., 6 hour after administration",106.2 ± 9.5 mmHg
same,Average blood pressure,"[2]; 0.50 mg/kg p.o., 8 hour after administration",114.4 ± 7.3 mmHg
same,Average blood pressure,"[2]; 0.50 mg/kg p.o., 24 hour after administration",111.8 ± 3.9 mmHg
same,decrease in blood pressure,"[2]; oral, 0.25 and 0.5 mg/kg",successive decrease in blood pressure was observed
same,LD50,[3],> 50000 µg/kg
same,deaths,male SD rats,no rats died
